Assays:
[1] = In vitro DOX release study (dialysis); type: physicochemical; settings: 96 hours, either pH
Procedure: An in vitro DOX release study was also performed wherein D-LMNs, M-LMNs, and free DOX were each dispersed in 1 ml PBS buffer containing 1% Tween 20 (pH 7.3 or pH 5.1) and placed in a dialysis membrane (MWCO of 12000-14000 Da), The bag was then immersed in a tube containing 10 mL of the same PBS buffer ([…] or pH 5.1) and incubated at 37° C. At specific time intervals the DOX content in the PBS was analyzed using the UV-VIS spectrophotometer at 485 nm. Samples were all done in triplicate. M-LMNs were used as a blank. The release of the encapsulated DOX from D-LMNs was determined at pH 7.3, which is the physiological pH, and at pH 5.1, which represents the acidic pH inside endosomes, lysosomes, and solid tumors. One percent Tween 20 was used because it forms hydrophobic pockets, which can stabilize the released DOX from the D-LMNs, and helps to avoid aggregation of the hydrophobic DOX in the aqueous environment.

HEK293 cells = settings: cells incubated with free DOX, literature; cited from earlier work

Question: With `COc1cccc2c1C(=O)c1c(O)c3c(c(O)c1C2=O)C[C@@](O)(C(=O)CO)C[C@@H]3O[C@H]1C[C@H](N)[C@H](O)[C@H](C)O1.Cl` [free DOX, doxorubicin hydrochloride] as the molecule, how does the DOX released [1] read?
Answer: Its DOX released is “more than 90%”.

Question: What about the “location of DOX in cells” value (HEK293 cells) of the same molecule?
Answer: The value was “found in the nuclei intercalated with DNA”.

Reference: patent publication US20130243867A1, “MICELLE COMPOSITIONS AND METHODS FOR THEIR USE” (University of South Florida (A Florida Non-Profit …, priority 2012, published 2013)
